Results: US20240325335A1, “BIOLOGICALLY COMPATIBLE, BIOFILM DISRUPTING COMPOSITION AND METHODS” (priority 2023, published 2024)
Where “and” joins values, the source holds several entries; their conditions need not be identical. Identical values can stand only once. Starred links: 1 amine or outer side, 2 acyl side, 3 side chain; linkers in the order of their positions; H or OH if unused. Positions of bridges follow the written chain, without caps; N, C: chain ends. Non-standard residues stand in square brackets, D forms with d. Residues, ends and D or L forms follow the SMILES beside them. X1 = CC(C)CCCCCCCCC[C@H](CC(=O)[*:1])O[*:2]

Experiments:
[1] = tested on: cold sores; assay: Additional clinical data and case study, cold sores; type: in vivo, human; settings: case study patient (untreated 2-4 weeks)
[2] = at 24 hours (Zeichner, '13); cited from earlier work
[3] = tested on: C. trachomatis; settings: Bergsson, '98; cited from earlier work
[4] = tested on: P. acnes; assay: Protocol #4 in-vitro time-kill (ASTM E2315); type: cell-based, Propionibacterium acnes
Method: PURPOSE: This evaluation uses an in-vitro time-kill method to quantitatively assess the bactericidal activity of […] (10) formulations when challenged with P. acnes. An in vitro time-kill evaluation was conducted with various compositions based upon the methods described in the standardized ASTM […], Standard Guide for Assessment of Antimicrobial Activity Using a Time-Kill Procedure. […] A neutralization assay was performed on all the challenge organisms. Testing at pH 4.0.

[5] = tested on: Candida albicans (ATCC MYA-2876; TPPS 1078), planktonic; assay: P #5A planktonic antifungal testing; type: cell-based; settings: up to 5-hour contact time, lecithin solubilizer
Method: Two sets of planktonic antifungal tests were performed, Candida and the dermatophyte Epidermophyton floccusum. Fungal strains-Candida albicans (ATCC MYA-2876; TPPS 1078) procured from the American Type Culture Collection, Manassas, VA.-Epidermophyton floccosum (ATCC 15693; TPPS 1243) procured from the American Type Culture Collection, Manassas, VA.

[6] = cited from earlier work
[7] = tested on: Pseudomonas aeruginosa biofilm; assay: Biofilm Protocol #3, LR against 48-hour biofilm, CDC Biofilm Reactor; type: cell-based; settings: pH 9.0, 5 hours contact time
Method: LR testing was performed with varying compositions of GML and UDA against Staph. aureus, Pseudomonas aeruginosa, E. coli., Klebsiella pneumonia, Enterococcus faecalis. All biofilm is 48 hour laboratory grown. Biofilms of the tested organisms were grown in the laboratory to become mature 48-hour old biofilm. Testing involved the evaluation of numerous composition combinations for their ability to kill biofilm-associated pathogens grown using a CDC Biofilm Reactor. The ability to kill organisms was documented as a LR of the selected organisms that was measured as CFUs (colony forming units). LRs were documented for the different composition combinations. Testing protocols initially included both FAs and esters. […] LR testing was performed with numerous combinations to determine an optimal combination. […] Additional combinations comprised the plant phenol/flavonoid quercetin, amino acids, the synthetic surfactant SLS, biosurfactants RL and MEL, and UDA. The BS SL was not tested due to poor results in the prior P #2 configurations. […] The TSC served as a buffer. […] Alkaline pH was buffered with disodium hydrogen phosphate or glycine.

[8] = tested on: Herpes Simplex Virus type 1 strain HF (ATCC #VR-260); assay: Virucidal Suspension Test (ASTM E1052-20, in-vitro time-kill); type: cell-based; settings: pH 9.0, 30 sec
Excerpt: The testing was based upon ASTM E1052-20, Standard Practice to Assess the Activity of Microbicides against Viruses in Suspension. The first antiviral testing protocols involve only HSV-1 virus with both alkaline and acid pH tests.
This study was done to determine virucidal efficacy of twelve test products when challenged with Herpes Simplex Virus type 1 strain HF (ATCC #VR-260) based upon a Virucidal Suspension Test (In-Vitro Time-Kill method). The test products comprise 8 varying compositions. Calculations of the estimated virus concentrations was performed using a 50% tissue culture infectious dose (TCID50) calculation—the Quantal test (Spearman-Karber Method). The logo reductions from the initial population of the viral strain were determined following exposure to the test product for 30 seconds, 2.5 minutes and 5 minutes. Testing was conducted in one replicate. Plating was performed in four replicates. […]
This study was done to determine virucidal efficacy of 12 test products when challenged with HSV-1 strain HF (ATCC #VR-260) and Human Coronavirus strain OC43 (ZeptoMetrix #0810024CF) based upon a Virucidal Suspension Test (In-Vitro Time-Kill method). […] The log 10 reductions from the initial population of the viral strain were determined following exposure to the test product for 30 seconds, 2.5 minutes and 5 minutes. […]

[9] = tested on: enveloped viruses; settings: at 1 hour, virtually all enveloped viruses tested (Hierholzer, '16); cited from earlier work
[10] = aqueous
[11] = tested on: Staphylococcus aureus (ATCC #6538) biofilm; assay: Biofilm Protocol #1, ASTM E2871 single tube method, CDC Biofilm Reactor; settings: 5-minute contact time; for Log10 CFU/Coupon: treated coupons
[12] = tested on: Pseudomonas aeruginosa (ATCC #15442) biofilm; assay: as above; settings: 5-minute contact time; for Log10 CFU/Coupon: treated coupons
[13] = tested on: Pseudomonas aeruginosa (ATCC #15442) biofilm; assay: Biofilm Protocol #2, ASTM E2871 single tube method, 48 hour biofilm; type: cell-based
Method: (§1) In this round of testing, it was the intent to test numerous potential antibiofilm combinations.
(§2) EtOH (ethanol) was used as a solvent for all hydrophobic compounds: SLs, CaprAc, CURC and OCT. EtOH was used at up to 1.0% concentration.
(§3) Alkaline pH is achieved with NaOH titration.
(§4) Each was performed in one replicate for each species. A single sponsor-selected exposure duration was evaluated. The challenge organisms for this evaluation were Pseudomonas aeruginosa (ATCC #15442) and Staphylococcus aureus MRSA (ATCC #6538

[14] = tested on: Staphylococcus aureus MRSA (ATCC #6538) biofilm; assay: as above; type: cell-based
Method: as §1, §2, §3, §4

[15] = tested on: Mycobacterium fortuitum (ATCC #6841) biofilm; assay: Protocol #6 mycobacterial biofilm in silicone tubing; type: cell-based; settings: pH 9.0, 5 hours contact time
Method: Two challenge microorganisms are separately evaluated: Brevundimonas diminuta (ATCC #19146) and Mycobacterium fortuitum (ATCC #6841). Biofilms of each challenge microorganism were formed in laboratory-created tubing loops consisting of a length of silicone tubing connected to a bottle of challenge microorganism in growth broth. The fluid within the tubing loop was recirculated for 10 to 14 days (Mycobacterium fortuitum) at a flowrate of 30 mL/minute while held at 36° C. (Mycobacterium fortuitum). Following completion of biofilm generation, the tubing loops were drained, and the tube lumen gently rinsed with phosphate-buffered water to remove planktonic (i.e., non-biofilm) challenge microorganisms. The tubing was then disinfected according to the manufacturer's Instructions for Use. At the completion of treatment, a portion of the silicone tubing was removed for analysis of biofilm concentration and imaging of biofilm coverage.

[16] = tested on: Candida albicans 48 hour biofilm; assay: P #5B-D Candida biofilm testing; type: cell-based; settings: pH 9.0-9.5, one hour contact time
Method: Organisms: Candida albicans ([…] 1078). Date Culture Initiated: […] Culture Medium: Sabouraud dextrose agar. […] These tests were performed utilizing only UDA, due to the poor GML results in P #5A. […] […] Effect of Aspartic Acid, Cysteine, Salicylic Acid […] Prior literature indicates poor antifungal effects in alkaline pH, thus it was the intent to document whether disclosed compositions would generate an improved antifungal effect in alkaline pH.

Nc1nc2c(ncn2COCCO)c(=O)[nH]1 [Acyclovir, acyclovir]
time to resolution of cold sores [1]: 7 to 14 days

O=C(OOC(=O)c1ccccc1)c1ccccc1 [BPO, benzoyl peroxide]
BPO absorbed through the skin [2]: 5-9%

CCCCCCCC(=O)O [Caprylic acid]
reduction in the infectivity titer / inactivation [3]: negligible effects

CCCCCCCCCCCC(=O)OCC(O)CO (centres unmarked) [GML, glycerol monolaurate]
Log Reductions 0.5 (30 seconds) ([4]; pH 4.0, 30 seconds exposure): 1.87
Log Reductions 5 min ([4]; pH 4.0, 5 min exposure): 4.81
LRs against planktonic C. albicans [5]: 0-1
maximal water solubility [6]: < 0.1 mg/mL
reduction in the infectivity titer / inactivation [3]: negligible effects
LR PA [7]: 9.11
LR 30 sec [8]: > 5.5 and > 4.75 and > 5.25
log reduction [9]: > 3
maximum concentration of GML solubilized ([10]; EtOH 1% as solvent): 0.1%
GML concentration solubilized ([10]; deoiled lecithin as solubilizer): ≥ 20%

CCCCCCCCN=c1ccn(CCCCCCCCCCn2ccc(=NCCCCCCCC)cc2)cc1 [I: OCT 0.1%, 1 mg/mL, octenidine]
Log10 Reduction ([11]; 1 mg/mL.): 3.28
Percent Reduction ([11]; 1 mg/mL.): 99.95%
Log10 CFU/Coupon ([11]; 1 mg/mL.): 4.93
Log10 Reduction [12]: 1.84
Percent Reduction [12]: 98.56%
Log10 CFU/Coupon [12]: 7.31

CCCCCCCCN=c1ccn(CCCCCCCCCCn2ccc(=NCCCCCCCC)cc2)cc1 [J: OCT 0.02%, 0.2 mg/mL, octenidine]
Log10 Reduction ([11]; 0.2 mg/ml): 1.87
Percent Reduction ([11]; 0.2 mg/ml): 98.68%
Log10 CFU/Coupon ([11]; 0.2 mg/ml): 6.34
Log10 Reduction [12]: 0.80
Percent Reduction [12]: 84.48%
Log10 CFU/Coupon [12]: 8.35

CCCCCCCCN=c1ccn(CCCCCCCCCCn2ccc(=NCCCCCCCC)cc2)cc1 [OCT, octenidine]
LOG REDUCTIONS Pseud ([13]; Acid pH 4.0): 4.9
LOG REDUCTIONS Pseud ([13]; Alkaline pH 8.5): 9.11
LOG REDUCTIONS Staph ([14]; Acid pH 4.0): 1.08
LOG REDUCTIONS Staph ([14]; Alkaline pH 8.5): 7.9

CCCCCCCCCCCCOS(=O)(=O)[O-].[Na+] [SLS, sodium lauryl sulfate]
LR PA [7]: 3.76

CC(C)CCCCCCCCC[C@@H]1CC(=O)N[C@@H](CCC(=O)O)C(=O)N[C@@H](CC(C)C)C(=O)N[C@H](CC(C)C)C(=O)N[C@@H](C(C)C)C(=O)N[C@@H](CC(=O)O)C(=O)N[C@H](CC(C)C)C(=O)N[C@@H](CC(C)C)C(=O)O1 [Surfactin] (EL[dL]VD[dL]L; linker N-C via X1)
Log10 Reduction [11]: 0.00
Percent Reduction [11]: 0.00%
Log10 CFU/Coupon [11]: 8.28
Log10 Reduction [12]: 0.00
Percent Reduction [12]: 0.00%
Log10 CFU/Coupon [12]: 9.18

C=CCCCCCCCCC(=O)O [UDA, undecylenic acid]
LR [15]: > 5.31
LR [16]: > 4

CCCCCCCCCC(=O)OCC(O)CO (centres unmarked) [monocaprin]
reduction in the infectivity titer / inactivation [3]: > 5 log 10

CCCCCCCC(=O)OCC(O)CO (centres unmarked) [monocaprylin]
reduction in the infectivity titer / inactivation [3]: negligible effects

CCCCCCCC/C=C\CCCCCCCC(=O)OCC(O)CO (centres unmarked) [monoolein]
reduction in the infectivity titer / inactivation [3]: negligible effects

CCCCCC/C=C\CCCCCCCC(=O)OCC(O)CO (centres unmarked) [monopalmitolein]
reduction in the infectivity titer / inactivation [3]: negligible effects

CCCCCCCCCCCCCC(=O)O [myristic acid]
reduction in the infectivity titer / inactivation [3]: negligible effects

CCCCCCCC/C=C\CCCCCCCC(=O)O [oleic acid]
reduction in the infectivity titer / inactivation [3]: negligible effects

CCCCCC/C=C\CCCCCCCC(=O)O [palmitoleic acid]
reduction in the infectivity titer / inactivation [3]: negligible effects

benzalkonium chloride [BAC]
LOG REDUCTIONS Pseud ([13]; Acid pH 4.0): > 6 and > 7
LOG REDUCTIONS Staph ([14]; Acid pH 4.0): 6.12 and > 7
